Experimental data: ChEMBL document CHEMBL5729403, “Small molecule modulators of the BTB domain of Keap1” (2022)

Test: HEK293 luciferase: Purpose of the AssayThe purpose of this assay is to identify small molecule inhibitors of Keap1, preventing Keap1 binding to Nrf2, and thus activating the Nrf2 signalling pathway in HEK-293 ARE firefly luciferase transiently transfected cells. HEK-293 cells express wild-type Keap1 protein and therefore have low constitutive levels of Nrf2 protein and Nrf2-dependent transcription. […] When Keap1 is inhibited, Nrf2 signalling is activated, and there is an increase in luciferase expression and light emission.Assay WorkflowCryopreserved HEK ARE luciferase cells were rapidly thawed in a 37° C. water bath and resuspended in assay culture medium (DMEM, 10% FCS, 2 mM L-glutamine). The cell suspension was pelleted by centrifugation ([…]; 300 g) using a Heraeus benchtop centrifuge. Supernatant was removed and the pellet was gently resuspended in 5 mL culture medium per vial. Cell viability and cell number was measured using an Invitrogen Countess automated cell counter (typical viability 80%), and cells were diluted to a density of 5.0×10^5 cells/mL.Cells were then plated out into white 384-well plates (Greiner 781080) using a Multidrop Combi, 20 μL/well, to give 10,000 cells/well. As appropriate, test compounds had been added to wells prior to dispensing cells using an Echo 555 acoustic dispenser (Labcyte). Plates were left at room temperature for ˜10 min to promote even cell settling across the plate before incubation for 18 h at 37° C., 95% humidity and 5% CO2.After 18 h incubation, plates were removed from the incubator and allowed to cool to room temperature for 30 min, before 10 μL per well SteadyGlo reagent detection reagent was added (as per manufacturer's instructions, 10 min before required 10 mL room temperature buffer was added to one vial of lyophilised substrate and inverted several times to fully dissolve). Plates were then incubated in the dark for 30 min before reading on an Envision plate reader.Preparation of Compounds for ScreeningCompounds were acoustically dispensed using a Labcyte Echo, using a 10 pt dose curve with a top concentration of 100 μM. Assay wells were backfilled with DMSO to a total of 60 nL to maintain 0.3% (v/v) DMSO through the assay.Data Analysis Software and Calculation of ResultsThe Stimulator signal was defined using 30 μM tert-butyl hydroquinone (tBHQ) and the Neutral signal by DMSO vehicle control. All calculations were performed using GeneData.

Row | SMILES | EC50
1 | CCc1cccc(C2(OC)C=C(C#N)C(=O)C(C)(C)C2)n1 (centres undefined) | > 30000 nM
2 | COC1(c2cccc(-c3ccccc3)n2)C=C(C#N)C(=O)C(C)(C)C1 (centres undefined) | 10000 nM
3 | COC1(c2ccc(C)cc2)C=C(C#N)C(=O)C(C)(C)C1 (centres undefined) | 309 nM
4 | COC1(c2cccc(C)n2)C=C(C#N)C(=O)C(C)(C)C1 (centres undefined) | 269 nM
